# Reference: PubChem BioAssay AID298 (DTP/NCI, 2004)
# Values joined by “and” are separate entries in the source; they are usually repeats but may differ in a detail not shown here. Equal values may be shown once. Records with an inconclusive call do not appear.
# Test system: MX-1 breast xenograft, intrarenal, nude mice, tumor weight
# Experiment: NCI In Vivo Anticancer Drug Screen. Data for tumor model Human Mammary Carcinoma MX-1 Xenograft (intrarenal inoculation) in NU/NU BALB/C (nude) mice
# Details: endpoint: mean tumor weight change, higher = larger tumour
# In short: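 T/C readout: treated-group measurement over vehicle-control measurement, using tumor size or survival in tumor-bearing mice.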
# [1] = dose: 200.0 mg/kg/injection, schedule: Q04DX003 (sc), vehicle: saline
# [2] = dose: 100.0 mg/kg/injection, schedule: Q04DX003 (sc), vehicle: saline with Tween-80
# [3] = dose: 200.0 mg/kg/injection, schedule: Q04DX003 (sc), vehicle: saline with Tween-80
# [4] = dose: 400.0 mg/kg/injection, schedule: Q04DX003 (sc), vehicle: saline with Tween-80
# [5] = dose: 300.0 mg/kg/injection, schedule: Q04DX003 (sc), vehicle: saline with Tween-80
# [6] = dose: 600.0 mg/kg/injection, schedule: Q04DX003 (sc), vehicle: saline with Tween-80
# [7] = dose: 1200.0 mg/kg/injection, schedule: Q04DX003 (sc), vehicle: saline with Tween-80
smiles,measurement,setting,value
Cc1ccc2c(c1)C1(C)OC(C=CC1=O)O2 (configuration not stated),T/C,"dose: 150.0 mg/kg/injection, schedule: Q04DX003 (ip), vehicle: Klucel (hydroxypropylcellulose) (HPC)",94 % of control
O=[N+]([O-])O.[Ga],T/C,[1],61 % of control
same,T/C,"dose: 400.0 mg/kg/injection, schedule: Q04DX003 (sc), vehicle: saline",67 % of control
same,T/C,"dose: 800.0 mg/kg/injection, schedule: Q04DX003 (sc), vehicle: saline",81 % of control
same,T/C,"dose: 1600.0 mg/kg/injection, schedule: Q04DX003 (sc), vehicle: saline",74 % of control
O=C[C@@H](CO)O[C@H](C=O)n1cnc2c(=O)[nH]cnc21,T/C,[2],73 % of control
same,T/C,[3],35 % of control
same,T/C,[4],-63 % of control
NC(=S)c1ncn(C2OC(COC=O)C(OC=O)C2OC=O)c1NC=O (configuration not stated),T/C,"dose: 50.0 mg/kg/injection, schedule: Q04DX003 (ip), vehicle: saline with Tween-80",105 % of control
same,T/C,"dose: 100.0 mg/kg/injection, schedule: Q04DX003 (ip), vehicle: Klucel (hydroxypropylcellulose) (HPC)",47 % of control
same,T/C,"dose: 100.0 mg/kg/injection, schedule: Q04DX003 (ip), vehicle: saline with Tween-80",103 % of control
same,T/C,"dose: 200.0 mg/kg/injection, schedule: Q04DX003 (ip), vehicle: Klucel (hydroxypropylcellulose) (HPC)",31 % of control
same,T/C,"dose: 200.0 mg/kg/injection, schedule: Q04DX003 (ip), vehicle: saline with Tween-80",65 % of control
same,T/C,"dose: 400.0 mg/kg/injection, schedule: Q04DX003 (ip), vehicle: Klucel (hydroxypropylcellulose) (HPC)",48 % of control
same,T/C,"dose: 400.0 mg/kg/injection, schedule: Q04DX003 (ip), vehicle: saline with Tween-80",9 % of control
O=C1NC(=O)NC(C(=O)O)N1,T/C,"dose: 200.0 mg/kg/injection, schedule: Q04DX003 (sc), vehicle: Klucel (hydroxypropylcellulose) (HPC)",96 % of control
same,T/C,"dose: 400.0 mg/kg/injection, schedule: Q04DX003 (sc), vehicle: Klucel (hydroxypropylcellulose) (HPC)",108 % of control
NC(=S)N/N=C/c1ccc(O)cn1,T/C,[2],88 % of control
same,T/C,[3],101 % of control
same,T/C,[4],92 % of control
CC[C@](C)(O)C(=O)O[C@H]1C(=O)O[C@@H]2C[C@H]3C(C)=CC(=O)[C@@H](O)[C@]3(C)[C@H]3[C@@]4(O)OC[C@]32[C@@H]1[C@@H](C)[C@H]4O,T/C,"dose: 0.25 mg/kg/injection, schedule: Q01DX010 (sc), vehicle: Klucel (hydroxypropylcellulose) (HPC)",23 % of control
same,T/C,"dose: 0.5 mg/kg/injection, schedule: Q01DX010 (sc), vehicle: Klucel (hydroxypropylcellulose) (HPC)",2 % of control
O=[N+]([O-])c1ccc(N2CCOCC2)c2c1no[n+]2[O-],T/C,"dose: 150.0 mg/kg/injection, schedule: Q04DX003 (sc), vehicle: saline with Tween-80",99 % of control
same,T/C,[5],55 % of control
same,T/C,[6],74 % of control
same,T/C,[7],63 % of control
Nc1ccn([C@@H](C=O)O[C@@H](C=O)CO)c(=O)n1,T/C,"dose: 50.0 mg/kg/injection, schedule: Q04DX003 (sc), vehicle: saline",70 % of control
same,T/C,"dose: 100.0 mg/kg/injection, schedule: Q04DX003 (sc), vehicle: saline",14 % of control
same,T/C,[1],-85 % of control
CC(=O)CC(=O)CCC(=O)O,T/C,"dose: 300.0 mg/kg/injection, schedule: Q04DX003 (sc), vehicle: saline",88 % of control
same,T/C,"dose: 1200.0 mg/kg/injection, schedule: Q04DX003 (sc), vehicle: saline",78 % of control
O=C(Nc1cccc(Cl)c1)ON1C(=O)C2C(C1=O)C1(Cl)C(Cl)C(Cl)C2(Cl)C1(Cl)Cl (configuration not stated),T/C,[5],91 % of control
same,T/C,[6],100 % of control
same,T/C,[7],91 % of control
same,T/C,"dose: 2400.0 mg/kg/injection, schedule: Q04DX003 (sc), vehicle: saline with Tween-80",114 % of control
COc1cc2c(c(OC)c1OC)-c1ccc(OC)c(=O)cc1[C@@H](NC(C)=O)CC2,T/C,"dose: 0.5 mg/kg/injection, schedule: Q04DX003 (ip), vehicle: saline",41 % of control and 48 % of control
same,T/C,"dose: 1.0 mg/kg/injection, schedule: Q04DX003 (ip), vehicle: saline",17 % of control and 20 % of control
